Source: ChEMBL document CHEMBL1201862, “PubChem BioAssay data set” (2004)
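Tested at 5 concentrations; 48 h exposure; 96-well plates; endpoints linearly interpolated, else capped at highest concentration. Here, GI50 denotes the concentration required for 50% inhibition of growth.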 The source made the active and inactive calls. No stated cut-off is given here; in the data, active = GI50 up to about 1.1 µM and inactive = higher.

Columns and labels:
Assay in all cases: DTP human tumour cell line panel, 48 h
A549 = tested on: A549
DU-145 = tested on: DU-145
HCC 2998 = tested on: HCC 2998
HOP-62 = tested on: HOP-62
Hs-578T = tested on: Hs-578T
IGROV-1 = tested on: IGROV-1
K562 = tested on: K562
LOX IMVI = tested on: LOX IMVI
MDA-MB-435 = tested on: MDA-MB-435
NCI-H460 = tested on: NCI-H460
NCI-H522 = tested on: NCI-H522
OVCAR-3 = tested on: OVCAR-3
RPMI-8226 = tested on: RPMI-8226
RXF 393 = tested on: RXF 393
SF-268 = tested on: SF-268
SF-539 = tested on: SF-539
SK-MEL-28 = tested on: SK-MEL-28
SN12C = tested on: SN12C
SNB-75 = tested on: SNB-75
TK-10 = tested on: TK-10

SMILES	GI50 (A549)	GI50 (DU-145)	GI50 (HCC 2998)	GI50 (HOP-62)	GI50 (Hs-578T)	GI50 (IGROV-1)	GI50 (K562)	GI50 (LOX IMVI)	GI50 (MDA-MB-435)	GI50 (NCI-H460)	GI50 (NCI-H522)	GI50 (OVCAR-3)	GI50 (RPMI-8226)	GI50 (RXF 393)	GI50 (SF-268)	GI50 (SF-539)	GI50 (SK-MEL-28)	GI50 (SN12C)	GI50 (SNB-75)	GI50 (TK-10)
COc1ccc(C2c3cc4c(cc3OC(NNS(=O)(=O)c3ccc(C)cc3)C2C)OCO4)cc1 (centres undefined)	29.3 µM (inactive)	> 100 µM (inactive)	> 100 µM (inactive)	> 100 µM (inactive)	27.7 µM (inactive)	57.1 µM (inactive)	10.6 µM (inactive)	79.8 µM (inactive)	54.6 µM (inactive)	41 µM (inactive)	11.8 µM (inactive)	80.7 µM (inactive)	12.5 µM (inactive)	38.6 µM (inactive)	> 100 µM (inactive)	> 100 µM (inactive)	> 100 µM (inactive)	> 100 µM (inactive)	37.4 µM (inactive)	> 100 µM (inactive)
COc1ccc([C@H]2[C@H]3COC(=O)[C@H]3C(C#N)=C3Sc4ccccc4N32)cc1	30.5 µM (inactive)	19.2 µM (inactive)	44.3 µM (inactive)	39 µM (inactive)	31.1 µM (inactive)	–	41.4 µM (inactive)	20.2 µM (inactive)	44.2 µM (inactive)	25.4 µM (inactive)	18.1 µM (inactive)	16.4 µM (inactive)	20.7 µM (inactive)	3.11 µM (inactive)	71.6 µM (inactive)	22.3 µM (inactive)	53.5 µM (inactive)	15.1 µM (inactive)	9.64 µM (inactive)	40.6 µM (inactive)
O=C(CNc1ccc(Cl)cc1)Nn1c(-c2ccccc2)nc2ccccc2c1=O	14.2 µM (inactive)	15.1 µM (inactive)	11.1 µM (inactive)	14.9 µM (inactive)	18.4 µM (inactive)	3.84 µM (inactive)	3.35 µM (inactive)	1.3 µM (inactive)	8.17 µM (inactive)	8.79 µM (inactive)	2.99 µM (inactive)	12.1 µM (inactive)	4.47 µM (inactive)	6.55 µM (inactive)	4.62 µM (inactive)	4.37 µM (inactive)	6.64 µM (inactive)	7.43 µM (inactive)	10.1 µM (inactive)	16.4 µM (inactive)
COC1C=COC2(C)Oc3c(C)c(O)c4c(O)c(c(C5SCCS5)c(O)c4c3C2=O)NC(=O)C(C)=C/C=C\C(C)C2OC(C)(C)OC(C2C)C(C)C(OC(C)=O)C1C (centres undefined)	3.66 µM (inactive)	8.93 µM (inactive)	5.15 µM (inactive)	12.2 µM (inactive)	15.8 µM (inactive)	6.56 µM (inactive)	4.09 µM (inactive)	5.31 µM (inactive)	4.79 µM (inactive)	4.21 µM (inactive)	5.02 µM (inactive)	4.78 µM (inactive)	4.57 µM (inactive)	7.21 µM (inactive)	7.33 µM (inactive)	12.9 µM (inactive)	23.5 µM (inactive)	4.3 µM (inactive)	42.3 µM (inactive)	6.41 µM (inactive)
O=C(O)C1C(C(=O)O)C2C(=O)C=CC1N2Cc1ccccc1 (centres undefined)	6.71 µM (inactive)	1.99 µM (inactive)	2.8 µM (inactive)	2.59 µM (inactive)	2.82 µM (inactive)	6.5 µM (inactive)	6.67 µM (inactive)	3.4 µM (inactive)	3.66 µM (inactive)	1.98 µM (inactive)	1.87 µM (inactive)	2.87 µM (inactive)	2.96 µM (inactive)	2.72 µM (inactive)	3.24 µM (inactive)	2.8 µM (inactive)	4.29 µM (inactive)	1.84 µM (inactive)	2.65 µM (inactive)	2.84 µM (inactive)
O=C(O)CCSCc1ccccc1	> 100 µM (inactive)	> 100 µM (inactive)	> 100 µM (inactive)	> 100 µM (inactive)	> 100 µM (inactive)	> 100 µM (inactive)	> 100 µM (inactive)	> 100 µM (inactive)	> 100 µM (inactive)	> 100 µM (inactive)	> 100 µM (inactive)	> 100 µM (inactive)	> 100 µM (inactive)	> 100 µM (inactive)	> 100 µM (inactive)	> 100 µM (inactive)	> 100 µM (inactive)	> 100 µM (inactive)	> 100 µM (inactive)	> 100 µM (inactive)
O=[N+]([O-])/C(Cl)=C(/C(Cl)=C(Cl)Cl)N1CCCCC1	12.6 µM (inactive)	14 µM (inactive)	15.9 µM (inactive)	22.6 µM (inactive)	5.06 µM (inactive)	10.6 µM (inactive)	7.64 µM (inactive)	7.33 µM (inactive)	8.81 µM (inactive)	18.7 µM (inactive)	6.44 µM (inactive)	10.8 µM (inactive)	4.43 µM (inactive)	7.26 µM (inactive)	11.9 µM (inactive)	16.4 µM (inactive)	14.5 µM (inactive)	14.2 µM (inactive)	18.8 µM (inactive)	21.4 µM (inactive)
COc1cc2c(cc1OCCCOc1cc(-c3ccc(F)cc3)nc(C)n1)N=C[C@@H]1CCCN1C2=O	18.2 µM (inactive)	9.06 µM (inactive)	> 10 µM (inactive)	–	24.7 µM (inactive)	19.2 µM (inactive)	–	13.6 µM (inactive)	15.2 µM (inactive)	> 100 µM (inactive)	14.6 µM (inactive)	15.2 µM (inactive)	26.1 µM (inactive)	20.2 µM (inactive)	17.2 µM (inactive)	16.6 µM (inactive)	20.7 µM (inactive)	16.5 µM (inactive)	19.1 µM (inactive)	18.1 µM (inactive)
O=C1c2ccccc2C(=O)c2c(/C=C\N3CCCCC3)ccnc21	2.12 µM (inactive)	1.44 µM (inactive)	2.72 µM (inactive)	3.81 µM (inactive)	1.23 µM (inactive)	11.1 µM (inactive)	0.551 µM (active)	0.337 µM (active)	0.327 µM (active)	1.3 µM (inactive)	2.55 µM (inactive)	1.75 µM (inactive)	2.29 µM (inactive)	8.53 µM (inactive)	12 µM (inactive)	3.12 µM (inactive)	1.11 µM (active)	1.4 µM (inactive)	2.01 µM (inactive)	15.2 µM (inactive)
NC(=O)c1nnn(Cc2cc(Cl)c(C(=O)c3ccc(Cl)cc3)c(Cl)c2)c1N [CARBOXYAMIDOTRIAZOLE]	12.7 µM (inactive)	19.2 µM (inactive)	> 9.1 µM (inactive)	25.7 µM (inactive)	39 µM (inactive)	22.5 µM (inactive)	8.05 µM (inactive)	22 µM (inactive)	11 µM (inactive)	14.8 µM (inactive)	19 µM (inactive)	12.3 µM (inactive)	25.4 µM (inactive)	23.7 µM (inactive)	13 µM (inactive)	29.2 µM (inactive)	27.9 µM (inactive)	29.2 µM (inactive)	32.8 µM (inactive)	20.6 µM (inactive)
C=CCNC(=O)NC1=CSC2=NC(=O)C3(NN12)c1ccccc1-c1ccccc13	> 10 µM (inactive)	> 10 µM (inactive)	> 10 µM (inactive)	> 10 µM (inactive)	4.16 µM (inactive)	> 10 µM (inactive)	> 10 µM (inactive)	> 10 µM (inactive)	> 10 µM (inactive)	> 10 µM (inactive)	> 10 µM (inactive)	–	> 10 µM (inactive)	> 10 µM (inactive)	> 10 µM (inactive)	> 10 µM (inactive)	> 10 µM (inactive)	> 10 µM (inactive)	> 10 µM (inactive)	> 10 µM (inactive)
Cc1c(-c2ccccc2)c(C#N)c2nnn(C3CCCCC3)c(=O)n12	83.4 µM (inactive)	> 100 µM (inactive)	> 100 µM (inactive)	14.7 µM (inactive)	97.9 µM (inactive)	60.4 µM (inactive)	88.3 µM (inactive)	> 100 µM (inactive)	> 100 µM (inactive)	> 100 µM (inactive)	> 100 µM (inactive)	> 100 µM (inactive)	47.4 µM (inactive)	19.8 µM (inactive)	> 100 µM (inactive)	47.4 µM (inactive)	> 100 µM (inactive)	98.2 µM (inactive)	28 µM (inactive)	> 100 µM (inactive)
O=C(O)CSc1ccccc1C(=O)O	> 100 µM (inactive)	> 100 µM (inactive)	29.6 µM (inactive)	> 100 µM (inactive)	> 100 µM (inactive)	> 100 µM (inactive)	> 100 µM (inactive)	> 100 µM (inactive)	> 100 µM (inactive)	20.7 µM (inactive)	> 100 µM (inactive)	> 100 µM (inactive)	> 100 µM (inactive)	> 100 µM (inactive)	> 100 µM (inactive)	> 100 µM (inactive)	> 100 µM (inactive)	> 100 µM (inactive)	> 100 µM (inactive)	22.8 µM (inactive)
C(=N/Nc1ccc(-c2nc3ccccc3[nH]2)cc1)/c1c(-c2ccccc2)[nH]c2ccccc12	–	0.733 µM (active)	0.168 µM (active)	0.319 µM (active)	0.267 µM (active)	0.728 µM (active)	0.176 µM (active)	0.759 µM (active)	0.0471 µM (active)	0.315 µM (active)	0.34 µM (active)	0.219 µM (active)	0.268 µM (active)	1.6 µM (inactive)	0.647 µM (active)	0.444 µM (active)	0.638 µM (active)	–	0.703 µM (active)	0.766 µM (active)
